Laboratory results: patent publication US7820623B2 (priority 2006, dated 2010)
Where two headings read alike, the source gives them in different places. Bridge positions count the residues as written; N and C are the ends. Square brackets hold non-standard residues; d marks the D form. Peptide text beside a SMILES is read from it. 1Nal = N[C@@H](Cc1cccc2ccccc12)C(=O)O

How the values were obtained:
human Kv1.3 (CHO) = target: T1, human Kv1.3 (CHO) (Homo sapiens, UniProt P22001); assay: cell-based; format: cell-based
T1 construct: expressed in transfected cells

human Kv1.1 (HEK293) = target: T2, human Kv1.1 (HEK293) (Homo sapiens, UniProt Q09470); assay: cell-based
T2 construct: expressed in transfected cells; host or cells: HEK293

[1] = system: thapsigargin-induced IFN-g production in human whole blood; format: cell-based; conditions: for IC50: read-out: Analogue Activity (IC50) WB/IFNg
[2] = system: thapsigargin-induced IL-2 production in human whole blood; conditions: for IC50: read-out: Analogue Activity (IC50) WB/IL-2
human Kv1.3 [3] = target: T3, human Kv1.3 (Homo sapiens, UniProt P22001); format: cell-based; design: expressed in transfected cells; conditions: read-out: IC50 on CHO/Kv1.3
human Kv1.3 [4] = target: T3, human Kv1.3; assay: cell-based
[5] = read-out: IC50 for block of the outward potassium current

T2 sequence (Q09470 whole entry): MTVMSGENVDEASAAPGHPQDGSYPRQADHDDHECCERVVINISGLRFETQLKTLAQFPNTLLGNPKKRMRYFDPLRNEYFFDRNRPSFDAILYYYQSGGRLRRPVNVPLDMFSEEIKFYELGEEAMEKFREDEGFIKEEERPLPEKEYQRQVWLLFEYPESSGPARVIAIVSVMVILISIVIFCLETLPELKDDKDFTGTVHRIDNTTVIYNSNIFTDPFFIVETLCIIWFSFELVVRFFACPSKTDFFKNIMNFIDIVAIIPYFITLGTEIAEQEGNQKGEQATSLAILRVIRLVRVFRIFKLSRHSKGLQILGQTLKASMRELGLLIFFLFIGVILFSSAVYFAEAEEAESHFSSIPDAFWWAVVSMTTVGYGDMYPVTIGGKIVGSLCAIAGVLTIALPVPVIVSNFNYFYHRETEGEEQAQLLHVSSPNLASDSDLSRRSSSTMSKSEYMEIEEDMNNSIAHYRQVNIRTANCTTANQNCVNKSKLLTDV
T3 sequence (P22001 whole entry): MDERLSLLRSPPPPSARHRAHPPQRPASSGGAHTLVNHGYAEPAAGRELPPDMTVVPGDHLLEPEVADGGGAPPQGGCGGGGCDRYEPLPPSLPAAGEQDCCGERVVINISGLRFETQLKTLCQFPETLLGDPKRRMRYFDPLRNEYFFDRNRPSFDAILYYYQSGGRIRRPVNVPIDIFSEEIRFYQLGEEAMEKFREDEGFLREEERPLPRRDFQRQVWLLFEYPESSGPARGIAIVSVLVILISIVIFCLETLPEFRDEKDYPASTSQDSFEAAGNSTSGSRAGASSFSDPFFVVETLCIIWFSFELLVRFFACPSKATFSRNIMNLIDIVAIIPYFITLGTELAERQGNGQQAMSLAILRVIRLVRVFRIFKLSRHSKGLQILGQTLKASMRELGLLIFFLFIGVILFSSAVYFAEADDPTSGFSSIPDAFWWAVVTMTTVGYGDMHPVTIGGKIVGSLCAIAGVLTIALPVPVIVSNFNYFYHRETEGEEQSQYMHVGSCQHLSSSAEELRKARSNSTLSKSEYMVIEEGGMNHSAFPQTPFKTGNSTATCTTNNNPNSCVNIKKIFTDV
T1 sequence (P22001 whole entry): as above

CC[C@H](C)[C@@H]1NC(=O)[C@H](CCCCN)NC(=O)[C@@H](NC(=O)[C@H](CCCCN)NC(=O)[C@@H](NC(=O)[C@H](CC(N)=O)NC(=O)[C@@H](NC(=O)[C@@H](NC(=O)[C@@H](NC(=O)CN)C(C)C)[C@@H](C)CC)[C@@H](C)CC)C(C)C)CSSC[C@@H]2NC(=O)[C@H](CCCCN)NC(=O)CNC(=O)[C@H](Cc3ccccc3)NC(=O)[C@H](CCCNC(=N)N)NC(=O)[C@H](CCSC)NC(=O)CNC(=O)[C@H](Cc3cccc4ccccc34)NC(=O)[C@H](CCCCN)NC(=O)[C@H](CCCCN)NC(=O)[C@@H]3CSSC[C@@H](C(=O)N[C@H](C(=O)N4CCC[C@H]4C(=O)N[C@@H](CCCCN)C(=O)O)[C@@H](C)O)NC(=O)[C@H](Cc4c[nH]cn4)NC(=O)[C@H](CSSC[C@H](NC(=O)[C@H](CCC(N)=O)NC(=O)[C@H](CCCNC(=N)N)NC(=O)[C@H](CO)NC1=O)C(=O)N[C@@H](CC(C)C)C(=O)N[C@@H](CCC(=O)O)C(=O)N1CCC[C@H]1C(=O)N3)NC(=O)[C@H](CCCCN)NC(=O)CNC(=O)[C@H](CC(N)=O)NC(=O)[C@H](CCSC)NC2=O [A21Nal] (H-GVIINVKCKISRQCLEPCKK[1Nal]GMRFGKCMNGKCHCTPK-OH; disulfide 8-28, 14-33, 18-35)
IC50 (human Kv1.3 (CHO)): 26.1 pM
IC50 (human Kv1.1 (HEK293)): < 1.52 pM
IC50 [1]: 434 pM
IC50 [2]: 315 pM

CC[C@H](C)[C@@H]1NC(=O)[C@H](CCCCN)NC(=O)[C@@H](NC(=O)[C@H](CCCCN)NC(=O)[C@@H](NC(=O)[C@H](CC(N)=O)NC(=O)[C@@H](NC(=O)[C@@H](NC(=O)[C@@H](NC(=O)[C@@H](N)Cc2cccc3ccccc23)C(C)C)[C@@H](C)CC)[C@@H](C)CC)C(C)C)CSSC[C@@H]2NC(=O)[C@H](CCCCN)NC(=O)CNC(=O)[C@H](Cc3ccccc3)NC(=O)[C@H](CCCNC(=N)N)NC(=O)[C@H](CCSC)NC(=O)CNC(=O)[C@H](C)NC(=O)[C@H](CCCCN)NC(=O)[C@H](CCCCN)NC(=O)[C@@H]3CSSC[C@@H](C(=O)N[C@H](C(=O)N4CCC[C@H]4C(=O)N[C@@H](CCCCN)C(=O)O)[C@@H](C)O)NC(=O)[C@H](Cc4c[nH]cn4)NC(=O)[C@H](CSSC[C@H](NC(=O)[C@H](CCC(N)=O)NC(=O)[C@H](CCCNC(=N)N)NC(=O)[C@H](CO)NC1=O)C(=O)N[C@@H](CC(C)C)C(=O)N[C@@H](CCC(=O)O)C(=O)N1CCC[C@H]1C(=O)N3)NC(=O)[C@H](CCCCN)NC(=O)CNC(=O)[C@H](CC(N)=O)NC(=O)[C@H](CCSC)NC2=O [G1Nal] (H-[1Nal]VIINVKCKISRQCLEPCKKAGMRFGKCMNGKCHCTPK-OH; disulfide 8-28, 14-33, 18-35)
IC50 (human Kv1.3 (CHO)): 20.7 pM
IC50 (human Kv1.1 (HEK293)): 33.9 pM
IC50 [1]: 2560 pM
IC50 [2]: 2790 pM

CC[C@H](C)[C@H](NC(=O)[C@@H](NC(=O)CN)C(C)C)C(=O)N[C@H](C(=O)N[C@@H](CC(N)=O)C(=O)N[C@H](C(=O)N[C@@H](CCCCN)C(=O)N[C@H]1CSSC[C@@H]2NC(=O)[C@H](CCCCN)NC(=O)CNC(=O)[C@H](Cc3ccccc3)NC(=O)[C@H](CCCNC(=N)N)NC(=O)[C@H](CCSC)NC(=O)CNC(=O)[C@H](C)NC(=O)[C@H](CCCCN)NC(=O)[C@H](CCCCN)NC(=O)[C@@H]3CSSC[C@@H](C(=O)N[C@H](C(=O)N4CCC[C@H]4C(=O)N[C@@H](CCCCN)C(=O)O)[C@@H](C)O)NC(=O)[C@H](Cc4c[nH]cn4)NC(=O)[C@H](CSSC[C@H](NC(=O)[C@H](CCC(N)=O)NC(=O)[C@H](CCCNC(=N)N)NC(=O)[C@H](CO)NC(=O)[C@H](Cc4cccc5ccccc45)NC(=O)[C@H](CCCCN)NC1=O)C(=O)N[C@@H](CC(C)C)C(=O)N[C@@H](CCC(=O)O)C(=O)N1CCC[C@H]1C(=O)N3)NC(=O)[C@H](CCCCN)NC(=O)CNC(=O)[C@H](CC(N)=O)NC(=O)[C@H](CCSC)NC2=O)C(C)C)[C@@H](C)CC [I10Nal] (H-GVIINVKCK[1Nal]SRQCLEPCKKAGMRFGKCMNGKCHCTPK-OH; disulfide 8-28, 14-33, 18-35)
IC50 (human Kv1.3 (CHO)): 45.4 pM
IC50 (human Kv1.1 (HEK293)): < 1.52 pM
IC50 [1]: 257 pM
IC50 [2]: 184 pM

CC[C@H](C)[C@@H]1NC(=O)[C@H](CCCCN)NC(=O)[C@@H](NC(=O)[C@H](CCCCN)NC(=O)[C@@H](NC(=O)[C@H](CC(N)=O)NC(=O)[C@@H](NC(=O)[C@@H](NC(=O)[C@@H](NC(=O)CN)C(C)C)[C@@H](C)CC)[C@@H](C)CC)C(C)C)CSSC[C@@H]2NC(=O)[C@H](CCCCN)NC(=O)CNC(=O)[C@H](Cc3ccccc3)NC(=O)[C@H](CCCNC(=N)N)NC(=O)[C@H](CCSC)NC(=O)CNC(=O)[C@H](C)NC(=O)[C@H](CCCCN)NC(=O)[C@H](CCCCN)NC(=O)[C@@H]3CSSC[C@@H](C(=O)N[C@H](C(=O)N4CCC[C@H]4C(=O)N[C@@H](CCCCN)C(=O)O)[C@@H](C)O)NC(=O)[C@H](Cc4c[nH]cn4)NC(=O)[C@H](CSSC[C@H](NC(=O)[C@H](CCC(N)=O)NC(=O)[C@H](CCCNC(=N)N)NC(=O)[C@H](CO)NC1=O)C(=O)N[C@@H](CC(C)C)C(=O)N[C@@H](CCC(=O)O)C(=O)N1CCC[C@H]1C(=O)N3)NC(=O)[C@H](CCCCN)NC(=O)CNC(=O)[C@H](Cc1cccc3ccccc13)NC(=O)[C@H](CCSC)NC2=O [N30Nal] (H-GVIINVKCKISRQCLEPCKKAGMRFGKCM[1Nal]GKCHCTPK-OH; disulfide 8-28, 14-33, 18-35)
IC50 (human Kv1.3 (CHO)): > 3330 pM
IC50 [1]: 37000 pM

CC[C@H](C)[C@@H]1NC(=O)[C@H](CCCCN)NC(=O)[C@@H](NC(=O)[C@H](CCCCN)NC(=O)[C@@H](NC(=O)[C@H](CC(N)=O)NC(=O)[C@@H](NC(=O)[C@@H](NC(=O)[C@@H](NC(=O)CN)C(C)C)[C@@H](C)CC)[C@@H](C)CC)C(C)C)CSSC[C@@H]2NC(=O)[C@H](CCCCN)NC(=O)CNC(=O)[C@H](Cc3ccccc3)NC(=O)[C@H](CCCNC(=N)N)NC(=O)[C@H](CCSC)NC(=O)CNC(=O)[C@H](C)NC(=O)[C@H](CCCCN)NC(=O)[C@H](CCCCN)NC(=O)[C@@H]3CSSC[C@@H](C(=O)N[C@H](C(=O)N4CCC[C@H]4C(=O)N[C@@H](CCCCN)C(=O)O)[C@@H](C)O)NC(=O)[C@H](Cc4c[nH]cn4)NC(=O)[C@H](CSSC[C@H](NC(=O)[C@H](CCC(N)=O)NC(=O)[C@H](CCCNC(=N)N)NC(=O)[C@H](CO)NC1=O)C(=O)N[C@@H](CC(C)C)C(=O)N[C@@H](CCC(=O)O)C(=O)N1CCC[C@H]1C(=O)N3)NC(=O)[C@H](CCCCN)NC(=O)CNC(=O)[C@H](CC(N)=O)NC(=O)[C@H](C)NC2=O [OSK1[Ala-29]] (H-GVIINVKCKISRQCLEPCKKAGMRFGKCANGKCHCTPK-OH; disulfide 8-28, 14-33, 18-35)
inhibition of Kv1.3 current and selectivity over Kv1.1 by IonWorks (human Kv1.3 (CHO)): potent inhibition of the Kv1.3 current and improved selectivity over Kv1.1
potency relative to cyclosporin A in blocking the cytokine response [2]: several orders of magnitude more potent
IC50 (human Kv1.3 [3]): 33 pM

CC[C@H](C)[C@@H]1NC(=O)[C@H](CCCCN)NC(=O)[C@@H](NC(=O)[C@H](CCCCN)NC(=O)[C@@H](NC(=O)[C@H](CC(N)=O)NC(=O)[C@@H](NC(=O)[C@@H](NC(=O)[C@@H](NC(=O)CN)C(C)C)[C@@H](C)CC)[C@@H](C)CC)C(C)C)CSSC[C@@H]2NC(=O)[C@H](CCCCN)NC(=O)CNC(=O)[C@H](Cc3ccccc3)NC(=O)[C@H](CCCNC(=N)N)NC(=O)[C@H](CCSC)NC(=O)CNC(=O)[C@H](C)NC(=O)[C@H](CCCCN)NC(=O)[C@H](CCCCN)NC(=O)[C@@H]3CSSC[C@@H](C(=O)N[C@H](C(=O)N4CCC[C@H]4C(=O)N[C@@H](CCCCN)C(=O)O)[C@@H](C)O)NC(=O)[C@H](Cc4c[nH]cn4)NC(=O)[C@H](CSSC[C@H](NC(=O)[C@H](CCC(N)=O)NC(=O)[C@H](CCCNC(=N)N)NC(=O)[C@H](CCC(=O)O)NC1=O)C(=O)N[C@@H](CC(C)C)C(=O)N[C@@H](CCC(=O)O)C(=O)N1CCC[C@H]1C(=O)N3)NC(=O)[C@H](CCCCN)NC(=O)CNC(=O)[C@H](CC(N)=O)NC(=O)[C@H](CCSC)NC2=O [S11E] (H-GVIINVKCKIERQCLEPCKKAGMRFGKCMNGKCHCTPK-OH; disulfide 8-28, 14-33, 18-35)
IC50 (human Kv1.3 (CHO)): > 3330 pM
IC50 (human Kv1.1 (HEK293)): > 3330 pM

CC[C@H](C)[C@@H]1NC(=O)[C@@H](NC(=O)[C@@H](N)CO)CSSC[C@@H](C(=O)O)NC(=O)[C@H]([C@@H](C)O)NC(=O)CNC(=O)[C@@H]2CSSC[C@@H]3NC(=O)[C@H](CCC(N)=O)NC(=O)[C@H](Cc4ccccc4)NC(=O)[C@H](C)NC(=O)[C@H]([C@@H](C)O)NC(=O)[C@H](CSSC[C@H](NC(=O)[C@H](Cc4ccccc4)NC(=O)[C@H](CO)NC(=O)[C@H](CC(C)C)NC(=O)[C@H](CCCNC(=N)N)NC(=O)[C@H](Cc4ccc(O)cc4)NC(=O)[C@H](CCCCN)NC(=O)[C@H](CCSC)NC(=O)[C@H](CO)NC(=O)[C@H](Cc4c[nH]cn4)NC(=O)[C@H](CCCCN)NC3=O)C(=O)N[C@@H](CCCNC(=N)N)C(=O)N[C@@H](CCCCN)C(=O)N[C@@H]([C@@H](C)O)C(=O)N2)NC(=O)[C@H](CCCNC(=N)N)NC(=O)[C@H](CO)NC(=O)[C@H](CCCCN)NC(=O)[C@@H]2CCCN2C(=O)[C@H]([C@@H](C)CC)NC(=O)[C@H]([C@@H](C)O)NC(=O)[C@H](CC(=O)O)NC1=O [ShK[2-35]] (H-SCIDTIPKSRCTAFQCKHSMKYRLSFCRKTCGTC-OH; disulfide 2-34, 11-27, 16-31)
IC50 (human Kv1.3 [4]): 49 ± 5 pM

E. coli-derived Fc-L-OSK1
IC50 (human Kv1.3 [4]; read-out: Kv1.3 IC50 by WCVC): 3200 pM

E. coli-derived Fc-L-ShK[1-35]
IC50 (human Kv1.3 [4]; read-out: Kv1.3 IC50 by WCVC): 1400 pM

E. coli-derived Fc-L-ShK[2-35]
IC50 (human Kv1.3 [4]; read-out: Kv1.3 IC50 by WCVC): 1300 pM
IC50 (human Kv1.3 (CHO); read-out: Kv1.3 IC50 by IWQ): 2800 pM

Fc-L5-ShK[2-35]: human IgG1 Fc fused via 5 amino acid linker to ShK[2-35]
IC50 (human Kv1.3 [4]; [5]): 100 pM

Fc-L10-ShK[2-35]: human IgG1 Fc fused via 10 amino acid linker to ShK[2-35]
IC50 (human Kv1.3 [4]; [5]): 115 ± 18 pM
thapsigargin-induced IFN-g production in human whole blood [1]: suppressed
stability in whole blood [2]: stable in whole blood
thapsigargin-induced IL-2 production in human whole blood [2]: suppressed
times more potent than cyclosporine A in blocking IL-2 production (IC50) [2]: more than 200 times

Fc-L-KTX1: Fc-linker fusion of Kaliotoxin1 (KTX1)
block of human Kv1.3 current (human Kv1.3 [4]): blocked the human Kv1.3 current in a dose-dependent fashion
